Where two headings read alike, the source gives them in different places.
How the values were obtained:
[1] = Multiple-dose (three-day) pharmacokinetic studies in FVB mice, drug in liquid diet; type: in vivo, mouse; settings: for concentration at 3 days: FVB, mouse, oral
Protocol: Aminothiazole analog (e.g., 4.5 g of 27) was added to 15 mL of pure PEG400, vortexed and sonicated to ensure dissolution, then stored at −4° C. until needed. This highly concentrated PEG400 solution was subsequently diluted to final dosing concentrations, where the volume added was composed of homogenized solid rodent feed, cocoa (taste masking agent), and water. Wild-type FVB mice weigh ˜25 gm and typically drink 20 mL of liquid diet per day, allowing an estimate of daily drug consumption. A single dosing cohort consisted of three mice in a shared cage and liquid diet was provided at the start of the study in sufficient volume to last for the entire three-day trial (˜200 mL). At the end of the three-day dosing period, animals were euthanized by CO2, followed by collection of plasma (cardiac puncture) and removal of whole brain. Heparinized blood was centrifuged to separate plasma and both plasma and brain samples were stored at −80° C. prior to analysis. Plasma samples were prepared for analysis by precipitating proteins and reconstituting the remaining fraction with HPLC mobile phase. Brain samples were typically prepared by four-fold dilution with water after weighing, then homogenized using bead-beater or Polytron™ resulting in a highly concentrated solution that was further diluted with mobile phase as appropriate in preparation for bioanalytical analysis using LC-MS. Analysis was by LC-MS (Shimadzu dual-HPLC pumps, C18 analytical column, with detection using an Applied Biosystems API-4000 triple quadrupole mass spectrometer).
Ten compounds were selected from among the 34 2-AMTs for three-day multiple-dose PK studies at PO doses ranging from 40-210 mg/kg. Selection was based on diversity in potency, chemical structure, and a range of physicochemical properties. We used a liquid diet to facilitate easy drug administration, as well as serve as the daily source of all water and food. This approach was chosen because the mouse bioassay studies that would be used to assess drug effects on survival would be expected to run for 110 to 400 days, or more; gavage dosing for such a long period is not feasible and more stressful to mice. For the multiple-dose PK studies, 4.5 g of the 2-AMT analogs was added to 15 mL of pure PEG400, vortexed and sonicated to ensure dissolution, then stored at −4° C. until needed. This highly concentrated PEG400 solution was subsequently diluted to final dosing concentrations and added to the rodent liquid diet, cocoa (taste-masking agent), and water.
Wild-type FVB mice weigh ˜25 g and typically drink 20 mL of liquid diet per day, allowing an estimate of daily drug consumption. A single dosing cohort consisted of three mice in a shared cage and liquid diet was provided at the start of the study in sufficient volume (˜200 mL) to last for the entire three-day period. At the end of the dosing period, animals were euthanized by CO2, followed by collection of plasma (cardiac puncture) and removal of whole brain. Samples were processed and stored as described above for the 10 mg/kg single-dose studies.
Plasma and brain homogenate samples were extracted using a protein-precipitation method and analyzed by specific LC/MS/MS methods developed for each compound dosed in vivo. The analytical method accuracy and precision were monitored by analyzing quality control (QC) samples that were prepared by the same methods as the plasma or brain homogenate samples. The brain and plasma concentration data were used to calculate the maximal concentration (Cmax), area under the concentration-time curve (AUClast), and absolute bioavailability (% F) by noncompartmental analysis with sparse sampling performed using Phoenix WinNonlin 6.1 software (Pharsight, Mountain View, Calif.).

[2] = Tolerability / toxicity on repeated dosing in mice
[3] = Single-dose pharmacokinetic studies in female FVB mice (PO, IV, IP); type: in vivo, mouse; settings: mouse; for bioavailability / Kp: female, 10 mg/kg; for bioavailability: FVB, mice, IV 1 mg/kg, oral 10 mg/kg, read-out: oral (absolute) bioavailability; for Kp: brain and plasma, FVB mice, single oral dose, read-out: brain:plasma AUClast ratio
Protocol: For in-vivo pharmacokinetic studies, compounds were dissolved in a formulation containing 20% propylene glycol, 5% ethanol, 5% labrosol, and 70% polyethylene glycol 400 (PEG400) and administered by oral gavage to female FVB mice weighing ˜25 g. At specified time points after dosing (0.25, 0.5, 1, 2, 4, 6, and 24 h), 2 animals were euthanized by CO2, and ˜1 mL blood (by cardiac puncture) and brain samples were collected. The heparinized blood samples were centrifuged to obtain plasma, which was stored at −80° C. until analysis. Brain samples were weighed, diluted […] with water, and then homogenized using a Precellys 24 tissue homogenizer. Brain homogenates (20% wt/vol) were stored at −80° C. until analysis. Pharmacokinetic protocols involving animals were all reviewed and approved by the UCSF institutional animal care and use committee (IACUC).
(§1) Plasma and brain homogenate samples were extracted using a protein-precipitation method and analyzed by specific LC/MS/MS methods developed for each compound dosed in vivo. The analytical method accuracy and precision were monitored by analyzing quality control (QC) samples that were prepared and treated using the same methods as calibration standards for the plasma or brain homogenate samples.
The data were used to calculate the area under the concentration-time curve (AUClast) by noncompartmental analysis with sparse sampling performed using Phoenix WinNonlin 6.1 software (Pharsight, Mountain View, Calif.).
Pharmacokinetic protocols employing mice were reviewed and approved by the UCSF Institutional Animal Care and Use Committee (IACUC). Female FVB mice, weighing approximately 25 g, were used for all in vivo pharmacokinetic studies. Mice were housed with free access to food and water, and were maintained on 12-h light/dark cycles for 1 week before dosing studies were initiated.
For the single-dose of 40 mg/kg, compounds were dissolved in a formulation containing 5% propylene glycol, […] α-tocopheryl polyethylene glycol 1000 succinate (TPGS) and 70% polyethylene glycol 400 (PEG400), and administered by oral gavage. Two animals per time point were used. At specified time points after dosing (0.5, 1, 2, 4, 6, and 24 h), animals were euthanized by CO2, and blood for plasma (by cardiac puncture) and brain samples were collected. The heparinized blood samples were centrifuged to obtain plasma. Brain samples were weighed, diluted 10-fold with water, and then homogenized using a Precellys 24 tissue homogenizer. The brain and plasma samples were flash-frozen on dry ice and then stored at −80° C. until analysis. For the single-dose administration at 10 mg/kg, compounds were dissolved in a formulation containing 20% propylene glycol, 5% ethanol, 5% labrosol, and 70% PEG400, and administered by oral gavage. Two animals per time point were used. At specified time points after dosing (0.25, 0.5, 1, 2, 4, 6, and 24 h), animals were euthanized by CO2, and blood for plasma (by cardiac puncture) and brain samples were collected. The heparinized blood samples were centrifuged to obtain plasma. Brain samples were weighed, diluted five-fold with water, and then homogenized using a Precellys 24 tissue homogenizer. The brain and plasma samples were flash-frozen on dry ice and then stored at −80° C. until analysis.
Compounds were administered through tail vein injection. Two animals per time point were used. At specified time points after dosing (5 min, 0.25, 0.5, 1, 2, 4, and 6 h), animals were euthanized by CO2. Blood and brain samples were obtained and processed as described above for the oral dosing at 40 mg/kg.
as §1, with “by” for “and treated using”, “as” for “as calibration standards for”, “samples. […]” for “samples.”

[4] = brain, 3 days in liquid diet, 40, 80, 130, 210 mg/kg/day, read-out: brain concentration
[5] = plasma, 3 days in liquid diet, 40, 80, 130, 210 mg/kg/day, read-out: plasma concentration
[6] = chronic studies in mice, wide range of doses

`COc1ccc(-c2csc(Nc3ccc4ccccc4n3)n2)cc1OC` [IND47, [4-(3,4-Dimethoxy-phenyl)-thiazol-2-yl]-quinolin-2-yl-amine] showed a concentration at 3 days [1, 4] of at most 1 µM and a concentration at 3 days [1, 5] of at most 1 µM.

With `Cc1cccc(Nc2nc(-c3ccc(-c4ccccc4)cc3)cs2)n1` [IND24, (4-Biphenyl-4-yl-thiazol-2-yl)-(6-methyl-pyridin-2-yl)-amine] the tolerability [2, 6] was “well tolerated”, the bioavailability ([3]; plasma, oral) was 27 to 40% and the bioavailability ([3]; plasma, po) was 40%. The Kp [3] was 2.6 and the half-life ([3]; plasma, female FVB mice, 1 mg/kg IV) was 2 h.

Work on `Cc1ccc(Nc2nc(-c3cc(-c4ccccc4)no3)cs2)nc1` [IND33, (5-Methyl-pyridin-2-yl)-[4-(3-phenyl-isoxazol-5-yl)-thiazol-2-yl]-amine] yielded a concentration at 3 days ([1]; brain, 3 days in liquid diet, 130 mg/kg dose, read-out: brain concentration) of about 30 µM.

In the case of `Cc1ccnc(Nc2nc(-c3ccncc3)cs2)c1` [IND52, (4-Methyl-pyridin-2-yl)-(4-pyridin-4-yl-thiazol-2-yl)-amine], the brain concentration ([1]; 3 days in liquid diet, 40 mg/kg dose) is reported as “no measurable brain concentrations”.

With `Cc1ccnc(Nc2nc(-c3ccc(-c4ccccn4)s3)cs2)c1` [IND81, (4-Methyl-pyridin-2-yl)-[4-(5-pyridin-2-yl-thiophen-2-yl)-thiazol-2-yl]-amine] the tolerability [2, 6] was “well tolerated”, the bioavailability ([3]; plasma, oral) was 27 to 40% and the bioavailability ([3]; plasma, po) was 25 to 27%. The Kp [3] was 5.5.

For `C(=N\Nc1ccc(-c2cnco2)cc1)/c1ccncc1` [IND54304, reference compound], the tolerability ([2]; 25, 50, 100, 150 mg/kg for 3 days in liquid diet) was “tolerated”, the animals dying ([2]; ≧150 mg/kg/day for 8 days) was 2/4 and the “brain concentration as multiple of EC50” value ([1]; 3 days in liquid diet, 100 mg/kg/day) was about 20 ×EC50. For the same molecule, the concentration at 3 days ([1]; brain, 3 days in liquid diet, 100 mg/kg/day, read-out: brain concentration) was about 10 µM, the bioavailability ([3]; plasma, po) was 25 to 27% and the Kp [3] was 0.5.

With `c1ccc2cc(Nc3nc(-c4ccncc4)cs3)ncc2c1` [IND85, Isoquinolin-3-yl-(4-pyridin-4-yl-thiazol-2-yl)-amine] the concentration at 3 days [1, 4] was at most 1 µM and the concentration at 3 days [1, 5] was at most 1 µM.
